From ChEMBL document CHEMBL1201862, “PubChem BioAssay data set” (2004)
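Where inhibition never reached the appropriate level, the endpoint shown equals the highest concentration tested. Otherwise, values were interpolated linearly from a five-concentration, 48-hour dose response in 96-well plates. Abbreviation: GI50, concentration required for 50% inhibition of growth.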 The source made the active and inactive calls. No stated cut-off is given here; in the data, active = GI50 up to about 1.1 µM and inactive = higher.

How the values were obtained:
Assay in all cases: inhibition of tumour cell growth, NCI panel, 48 h
[1] = tested on: 786-0
[2] = tested on: A498
[3] = tested on: A549
[4] = tested on: ACHN
[5] = tested on: BT-549
[6] = tested on: CAKI-1
[7] = tested on: CCRF-CEM
[8] = tested on: COLO 205
[9] = tested on: DU-145
[10] = tested on: EKVX
[11] = tested on: HCC 2998
[12] = tested on: HCT-116
[13] = tested on: HCT-15
[14] = tested on: HL-60
[15] = tested on: HOP-62
[16] = tested on: HOP-92
[17] = tested on: HT-29
[18] = tested on: Hs-578T
[19] = tested on: IGROV-1
[20] = tested on: K562
[21] = tested on: KM12
[22] = tested on: LOX IMVI
[23] = tested on: M14
[24] = tested on: MCF7
[25] = tested on: MDA-MB-231
[26] = tested on: MDA-MB-435
[27] = tested on: MDA-N
[28] = tested on: MOLT-4
[29] = tested on: Malme-3M
[30] = tested on: NCI-H226
[31] = tested on: NCI-H23
[32] = tested on: NCI-H460
[33] = tested on: NCI-H522
[34] = tested on: OVCAR-3
[35] = tested on: OVCAR-4
[36] = tested on: OVCAR-5
[37] = tested on: OVCAR-8
[38] = tested on: PC-3
[39] = tested on: RPMI-8226
[40] = tested on: RXF 393
[41] = tested on: SF-268
[42] = tested on: SF-295
[43] = tested on: SF-539
[44] = tested on: SK-MEL-28
[45] = tested on: SK-MEL-2
[46] = tested on: SK-MEL-5
[47] = tested on: SK-OV-3
[48] = tested on: SN12C
[49] = tested on: SNB-19
[50] = tested on: SNB-75
[51] = tested on: SW-620
[52] = tested on: T47D
[53] = tested on: TK-10
[54] = tested on: U-251
[55] = tested on: UACC-257
[56] = tested on: UACC-62
[57] = tested on: UO-31

`C=C1C(=O)OC2/C=C(\C)C(O)CC(O)C(C)(O)CC(OC(=O)/C(C)=C/C)C12` (configuration not stated) was tested. Which GI50 [1] did it give?
The GI50 was 41.5 µM (inactive).

What about the GI50 [2] of the same molecule?
Its GI50 is 42.2 µM (inactive).

What about the GI50 [3] of the same molecule?
The GI50 was 53.6 µM (inactive).

And the GI50 [4]?
The GI50 was 39.2 µM (inactive).

What about the GI50 [5] of the same molecule?
The GI50 was 26.1 µM (inactive).

And the GI50 [6]?
The GI50 was 29 µM (inactive).

What about the GI50 [7] of the same molecule?
The GI50 was 34.3 µM (inactive).

What about the GI50 [8] of the same molecule?
Its GI50 is 57.8 µM (inactive).

What about the GI50 [9] of the same molecule?
Its GI50 is 34.3 µM (inactive).

What about the GI50 [10] of the same molecule?
Its GI50 is 43.1 µM (inactive).

And the GI50 [11]?
Its GI50 is 34.9 µM (inactive).

And the GI50 [12]?
The GI50 was 32.9 µM (inactive).

And the GI50 [13]?
The GI50 was 28.4 µM.

And the GI50 [14]?
Its GI50 is 39.9 µM (inactive).

What about the GI50 [15] of the same molecule?
The GI50 was > 100 µM (inactive).

And the GI50 [16]?
The GI50 was 41.9 µM (inactive).

And the GI50 [17]?
Its GI50 is 39.6 µM (inactive).

And the GI50 [18]?
Its GI50 is 44.2 µM (inactive).

What about the GI50 [19] of the same molecule?
Its GI50 is 31.7 µM (inactive).

What about the GI50 [20] of the same molecule?
Its GI50 is 32.6 µM (inactive).

And the GI50 [21]?
Its GI50 is 29.6 µM (inactive).

And the GI50 [22]?
The GI50 was 32.3 µM (inactive).

What about the GI50 [23] of the same molecule?
Its GI50 is 60.1 µM (inactive).

What about the GI50 [24] of the same molecule?
The GI50 was 56.8 µM (inactive).

What about the GI50 [25] of the same molecule?
The GI50 was 49.5 µM (inactive).

What about the GI50 [26] of the same molecule?
Its GI50 is 36.5 µM (inactive).

And the GI50 [27]?
The GI50 was 37.3 µM (inactive).

And the GI50 [28]?
Its GI50 is 1.34 µM (inactive).

What about the GI50 [29] of the same molecule?
Its GI50 is 50 µM (inactive).

And the GI50 [30]?
The GI50 was 33.4 µM (inactive).

What about the GI50 [31] of the same molecule?
Its GI50 is 46.9 µM (inactive).

And the GI50 [32]?
Its GI50 is 32.1 µM (inactive).

And the GI50 [33]?
Its GI50 is 28.1 µM (inactive).

And the GI50 [34]?
The GI50 was 44.2 µM (inactive).

What about the GI50 [35] of the same molecule?
The GI50 was 45.2 µM (inactive).

What about the GI50 [36] of the same molecule?
The GI50 was > 73.8 µM (inactive).

What about the GI50 [37] of the same molecule?
The GI50 was 32.5 µM (inactive).

What about the GI50 [38] of the same molecule?
The GI50 was 46.1 µM (inactive).

And the GI50 [39]?
Its GI50 is 23 µM (inactive).

What about the GI50 [40] of the same molecule?
The GI50 was > 60.1 µM (inactive).

What about the GI50 [41] of the same molecule?
The GI50 was 42.3 µM (inactive).

What about the GI50 [42] of the same molecule?
The GI50 was 55.1 µM (inactive).

And the GI50 [43]?
The GI50 was 42.4 µM (inactive).

What about the GI50 [44] of the same molecule?
The GI50 was 47.9 µM (inactive).

What about the GI50 [45] of the same molecule?
Its GI50 is 43.1 µM (inactive).

And the GI50 [46]?
The GI50 was 36.7 µM (inactive).

What about the GI50 [47] of the same molecule?
Its GI50 is 53.5 µM (inactive).

What about the GI50 [48] of the same molecule?
Its GI50 is 39.8 µM (inactive).

And the GI50 [49]?
Its GI50 is 66.5 µM (inactive).

And the GI50 [50]?
Its GI50 is 38.2 µM (inactive).

What about the GI50 [51] of the same molecule?
The GI50 was 35.6 µM (inactive).

And the GI50 [52]?
Its GI50 is 65.5 µM (inactive).

What about the GI50 [53] of the same molecule?
The GI50 was > 67.5 µM (inactive).

What about the GI50 [54] of the same molecule?
The GI50 was 38.1 µM (inactive).

What about the GI50 [55] of the same molecule?
Its GI50 is 83.8 µM (inactive).

And the GI50 [56]?
Its GI50 is 33.7 µM (inactive).

What about the GI50 [57] of the same molecule?
The GI50 was 44.6 µM (inactive).
